Source: patent US7169786B2, “Isoxazoline derivatives as anti-depressants” (priority 2001, dated 2007)

Experiments:
hα2A receptor = molecular target: T1, hα2A receptor (Homo sapiens, UniProt P08913); assay: Radioligand binding experiment for hα2A receptor ([3H]-raulwolscine); conditions: membranes of CHO cells expressing human α2A receptor; [3H]raulwolscine 1 nM; read-out: hα2A pIC50 (converted)
T1 construct: expressed in transfected cells
T1 sequence (P08913 1-465): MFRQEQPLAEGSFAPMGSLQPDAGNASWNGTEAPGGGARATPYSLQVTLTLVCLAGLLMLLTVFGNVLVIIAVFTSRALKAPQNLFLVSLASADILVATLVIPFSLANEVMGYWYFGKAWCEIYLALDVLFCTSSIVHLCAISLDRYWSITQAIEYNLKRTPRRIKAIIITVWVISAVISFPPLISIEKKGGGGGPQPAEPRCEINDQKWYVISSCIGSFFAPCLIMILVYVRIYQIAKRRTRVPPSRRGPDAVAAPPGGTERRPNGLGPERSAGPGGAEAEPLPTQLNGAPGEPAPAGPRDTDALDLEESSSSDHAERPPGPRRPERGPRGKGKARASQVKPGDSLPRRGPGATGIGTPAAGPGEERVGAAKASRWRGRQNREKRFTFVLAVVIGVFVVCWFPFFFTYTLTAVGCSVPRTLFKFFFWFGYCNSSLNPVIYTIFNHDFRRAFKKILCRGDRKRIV
In short: (§1)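 Competition binding with [3H]-rauwolscine on membranes from CHO cells stably expressing human α2A, α2B or α2C receptors (sodium butyrate-induced), in 25 mM glycylglycine pH 8.0; filtration and scintillation counting.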

hα2B receptor = molecular target: T2, hα2B receptor (Homo sapiens, UniProt P18089); assay: Radioligand binding experiment for hα2B receptor ([3H]-raulwolscine); conditions: membranes of CHO cells expressing human α2B receptor; [3H]raulwolscine 1 nM; read-out: hα2B pIC50 (converted)
T2 construct: expressed in transfected cells
T2 sequence (P18089 1-450): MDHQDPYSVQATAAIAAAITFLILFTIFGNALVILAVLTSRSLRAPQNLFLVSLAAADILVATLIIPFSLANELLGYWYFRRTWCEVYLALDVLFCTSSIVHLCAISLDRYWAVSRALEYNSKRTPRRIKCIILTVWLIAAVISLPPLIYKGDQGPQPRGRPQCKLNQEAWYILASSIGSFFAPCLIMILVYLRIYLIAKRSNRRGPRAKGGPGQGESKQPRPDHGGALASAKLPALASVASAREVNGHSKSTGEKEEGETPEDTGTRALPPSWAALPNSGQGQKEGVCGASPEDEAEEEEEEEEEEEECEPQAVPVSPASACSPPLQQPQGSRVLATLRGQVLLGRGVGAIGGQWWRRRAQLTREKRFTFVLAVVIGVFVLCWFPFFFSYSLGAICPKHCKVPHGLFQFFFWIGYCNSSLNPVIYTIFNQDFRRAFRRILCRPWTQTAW
In short: as §1

hα2C receptor = molecular target: T3, hα2C receptor (Homo sapiens, UniProt P18825); assay: Radioligand binding experiment for hα2C receptor ([3H]-raulwolscine); conditions: membranes of CHO cells expressing human α2C receptor; [3H]raulwolscine 1 nM; read-out: hα2C pIC50 (converted)
T3 construct: expressed in transfected cells
T3 sequence (P18825 1-462): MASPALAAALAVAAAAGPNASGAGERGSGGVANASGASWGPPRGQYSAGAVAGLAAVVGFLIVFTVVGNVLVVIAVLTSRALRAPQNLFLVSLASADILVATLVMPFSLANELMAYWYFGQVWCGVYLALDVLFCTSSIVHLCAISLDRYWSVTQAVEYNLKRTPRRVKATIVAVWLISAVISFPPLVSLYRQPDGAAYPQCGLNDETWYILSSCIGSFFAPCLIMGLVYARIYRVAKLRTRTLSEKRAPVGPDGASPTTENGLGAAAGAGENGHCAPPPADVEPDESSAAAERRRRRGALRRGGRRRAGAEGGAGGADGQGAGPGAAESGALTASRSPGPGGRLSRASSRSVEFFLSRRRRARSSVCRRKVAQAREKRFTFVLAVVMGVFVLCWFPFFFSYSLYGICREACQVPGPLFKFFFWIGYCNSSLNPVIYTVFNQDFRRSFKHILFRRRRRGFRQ
In short: as §1

h5-HT transporter = molecular target: T4, h5-HT transporter (Homo sapiens, UniProt P31645); assay: Radioligand binding experiment for 5-HT transporter ([3H]paroxetine, human platelet membranes); conditions: human platelet membranes; [3H]paroxetine 0.5 nM; read-out: 5HTT pIC50 (converted)
T4 construct: Human platelet membranes (Oceanix Biosciences Corporation, Hanover, Md., USA) were thawed; tissue Oceanix Biosciences Corporation, Hanover, Md., USA; host or cells: human platelet membranes
T4 sequence (P31645 whole entry): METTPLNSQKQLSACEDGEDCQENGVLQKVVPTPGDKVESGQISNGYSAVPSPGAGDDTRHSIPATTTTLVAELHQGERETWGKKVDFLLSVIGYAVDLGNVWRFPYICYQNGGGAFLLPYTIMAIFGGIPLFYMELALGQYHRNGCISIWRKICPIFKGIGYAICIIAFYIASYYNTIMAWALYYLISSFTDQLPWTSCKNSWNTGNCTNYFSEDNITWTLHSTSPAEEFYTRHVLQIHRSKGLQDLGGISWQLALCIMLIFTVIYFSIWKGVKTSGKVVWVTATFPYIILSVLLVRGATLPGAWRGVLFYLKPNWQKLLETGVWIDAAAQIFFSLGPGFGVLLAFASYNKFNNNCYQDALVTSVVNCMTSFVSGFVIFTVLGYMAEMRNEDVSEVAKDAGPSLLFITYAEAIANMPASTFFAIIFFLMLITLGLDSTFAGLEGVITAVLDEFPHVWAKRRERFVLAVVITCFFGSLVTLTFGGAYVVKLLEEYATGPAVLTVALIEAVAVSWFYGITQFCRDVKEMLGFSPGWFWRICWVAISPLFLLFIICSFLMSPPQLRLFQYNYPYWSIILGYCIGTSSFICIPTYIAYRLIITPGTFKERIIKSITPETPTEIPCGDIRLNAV
In short: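 Competition binding of [^3H]paroxetine to human platelet membranes in Tris-HCl 50 mM, 120 mM NaCl, 5 mM KCl; filter-bound radioactivity counted.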

COc1cc2c(cc1OC)C1=NOC(CN3CCN(Cc4ccc5c(N)cccc5c4)CC3)C1CO2 (stereo not shown) [Compound 304]
IC50 (hα2A receptor): 19.5 nM
IC50 (hα2B receptor): 58.9 nM
IC50 (hα2C receptor): 64.6 nM
IC50 (h5-HT transporter): 38.9 nM

COc1cc2c(cc1OC)C1=NOC(CN3CCN(C/C=C/c4ccc(F)cc4F)CC3)C1CO2 (single isomer, unassigned) [Compound 185]
IC50 (hα2A receptor): 145 nM
IC50 (hα2B receptor): 77.6 nM
IC50 (hα2C receptor): 29.5 nM
IC50 (h5-HT transporter): 12.6 nM

COc1cc2c(cc1OC)C1=NOC(CN3CCN(CC4=Cc5ccccc5OC4)CC3)C1CO2 (stereo not shown) [Compound 65]
IC50 (hα2A receptor): 13.2 nM
IC50 (hα2B receptor): 18.2 nM
IC50 (hα2C receptor): 5.13 nM
IC50 (h5-HT transporter): 5.13 nM

COc1cc2c(cc1OC)C1=NOC(CN3CCN(CCc4ccc5c(c4)OCO5)CC3)C1CO2 (stereo not shown) [Compound 47]
IC50 (hα2A receptor): 661 nM
IC50 (hα2B receptor): 447 nM
IC50 (hα2C receptor): 851 nM
IC50 (h5-HT transporter): 50.1 nM
